In article PMC10778976, “BAY-3827 and SBI-0206965: Potent AMPK Inhibitors That Paradoxically Increase Thr172 Phosphorylation” (International Journal of Molecular Sciences, 2023):

What was measured:
[1] = target: T1, LKB1 (human LKB1:STRADα:MO25α complex) (Homo sapiens, UniProt Q15831); assay: LKB1 activity using LKBtide peptide; assay type: biochemical; conditions: LKBtide substrate
T1 construct: made in house
T1 sequence (Q15831 1-433): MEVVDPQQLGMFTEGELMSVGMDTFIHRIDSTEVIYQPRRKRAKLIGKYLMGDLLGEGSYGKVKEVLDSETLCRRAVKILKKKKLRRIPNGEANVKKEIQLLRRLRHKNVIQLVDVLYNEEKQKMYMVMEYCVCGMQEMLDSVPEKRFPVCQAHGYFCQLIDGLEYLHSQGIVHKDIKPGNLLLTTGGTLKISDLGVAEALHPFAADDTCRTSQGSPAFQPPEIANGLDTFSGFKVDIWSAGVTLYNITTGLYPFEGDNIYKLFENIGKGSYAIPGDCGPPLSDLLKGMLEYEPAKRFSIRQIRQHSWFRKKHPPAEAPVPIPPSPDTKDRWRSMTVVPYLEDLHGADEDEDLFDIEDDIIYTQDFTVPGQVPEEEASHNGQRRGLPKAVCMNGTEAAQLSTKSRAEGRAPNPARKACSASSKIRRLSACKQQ
T1 sequence (Q7RTN6 1-431 partner): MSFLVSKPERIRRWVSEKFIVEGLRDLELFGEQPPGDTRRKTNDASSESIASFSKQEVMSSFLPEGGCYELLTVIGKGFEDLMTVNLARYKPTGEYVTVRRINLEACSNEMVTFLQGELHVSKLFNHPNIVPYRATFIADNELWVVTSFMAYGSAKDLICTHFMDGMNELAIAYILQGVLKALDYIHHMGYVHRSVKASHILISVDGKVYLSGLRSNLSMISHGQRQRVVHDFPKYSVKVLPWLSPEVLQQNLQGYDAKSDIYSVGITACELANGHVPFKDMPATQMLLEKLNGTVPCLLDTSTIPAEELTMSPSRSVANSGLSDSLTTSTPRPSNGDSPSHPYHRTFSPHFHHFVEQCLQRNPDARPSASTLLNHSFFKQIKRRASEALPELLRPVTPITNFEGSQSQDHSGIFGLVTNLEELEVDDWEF
T1 sequence (Q9Y376 1-341 partner): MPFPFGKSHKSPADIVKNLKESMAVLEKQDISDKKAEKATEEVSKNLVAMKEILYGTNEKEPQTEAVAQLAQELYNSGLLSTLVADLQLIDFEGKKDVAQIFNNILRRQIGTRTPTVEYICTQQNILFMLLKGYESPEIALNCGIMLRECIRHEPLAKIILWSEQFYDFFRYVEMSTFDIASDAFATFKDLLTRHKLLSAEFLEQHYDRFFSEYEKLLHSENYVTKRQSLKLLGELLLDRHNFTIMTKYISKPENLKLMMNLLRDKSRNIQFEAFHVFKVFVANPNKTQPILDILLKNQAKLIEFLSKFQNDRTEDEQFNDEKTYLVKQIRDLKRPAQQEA
Experimental: To directly determine LKB1 activity, kinase assays were performed in the presence or absence of the indicated concentration of BAY-3827 or SBI-0206965 as for AMPK, except that LKBtide was used as a peptide substrate. PPM1A activity was determined using p-nitrophenyl phosphate (pNPP) as a substrate. PPM1A (5 µg) was incubated with 50 mM pNPP and 50 mM MgCl2 in Hepes buffer in the presence of a vehicle or the indicated concentration of BAY-3827 or SBI-0206965 for 10 min at 30 °C. The reaction was quenched by the addition of 1 mL of 0.5 M EDTA and the amount of product, p-nitrophenol, determined by measuring absorbance at 405 nm.

[2] = system: human AMPK (α2β1γ1 complex); conditions: low ATP concentration (10 µM); read-out: IC50, inhibition of human AMPK (α2β1γ1 complex); cited from earlier work
[3] = system: endogenous AMPK from HEK-293 cells; assay: Protection of immunoprecipitated AMPK against inactivation by PP2Cα (PPM1A); assay type: biochemical, human; conditions: immunoprecipitated AMPK, 10 min 30 °C; read-out: half-maximal effect on protection against inactivation by PPM1A
Experimental: AMPK was immunoprecipitated from HEK-293 cell lysate (2.5 mg of lysate protein) using a mixture of anti-α1 and -α2 antibodies. After extensive washing as in Section 4.5, aliquots equivalent to 80 µg of lysate protein were incubated in a shaking incubator at 30 °C for 10 min in Hepes buffer (50 mM Na Hepes, pH 7.4, 150 mM NaCl, 1 mM dithiothreitol, 0.02% (w/v) Brij-35) with 50 mM MgCl2 and sufficient PPM1A to yield about 80% inactivation, in the presence or absence of 200 µM AMP or the indicated concentration of BAY-3827 or SBI-0206965 (total volume 50 µL). The reaction was terminated by adding 1 mL of IP buffer (50 mM Tris/HCl, pH 7.4 at room temperature, 150 mM NaCl, 1 mM EDTA, 1 mM EGTA, 5 mM Na pyrophosphate, 50 mM NaF, 1 mM dithiothreitol, 0.1% (v/v) Triton X-100) and, after additional washing in the same buffer and a final wash into Hepes buffer, AMPK activity was determined using kinase assays as above.

purified rat liver AMPK = assay: Allosteric activation of rat liver AMPK by AMP with and without BAY-3827; assay type: biochemical; conditions: BAY-3827 30 nM
From the text: AMPK assays measured the transfer of radioactivity from labelled ATP to a peptide substrate, which was separated from unreacted ATP by binding to P81 paper. This assay was described previously, except that we used [γ-^33P]ATP rather than [γ-^32P]ATP. The peptide substrate was the AMARA peptide in all experiments other than one, which analyzed allosteric activation by AMP (Figure 2A), when, for technical reasons, the SAMS peptide was used instead. With purified preparations of AMPK, it was assayed in solution, but for assays in cell lysates (Figure 3D and Figure 4D), it was first immunoprecipitated using a mixture of anti-α1 and -α2 antibodies and assayed in resuspended immunoprecipitates. After the initial immunoprecipitation of lysate containing 80 µg of protein, the pellets were washed twice with 1 mL of high salt IP buffer (50 mM Tris-HCL, pH 7.4 at 4 °C, 1 M NaCl, 1 mM EDTA, 1 mM EGTA, 50 mM NaF, 5 mM Na pyrophosphate, 1 mM dithiothreitol, 0.1% (v/v) Triton X-100) and twice with 1 mL of low salt IP buffer (as above but only 150 mM NaCl), followed by a final wash in 1 mL of assay buffer (50 mM Na Hepes, pH7.4, 150 mM NaCl, 1 mM dithiothreitol, 0.02% (v/v) Brij-35). After each wash, the pellet was recovered via centrifugation (16,000× g, 3 min) and then resuspended. The final resuspended pellets from each biological replicate were divided into two aliquots (40 µg lysate protein) to provide technical replicates and assayed as above.

[4] = design: method as in PMID 35802287; conditions: cited from earlier work

SMILES	effect on LKB1 activity ([1]; all concentrations used)	IC50 [2]	EC50 [3]	fold increase of EC50 for AMP (purified rat liver AMPK)	basal activity (without AMP) (purified rat liver AMPK; control without inhibitor 135)	IC50 ([1]; read-out: IC50, inhibition of LKB1 activity)	elimination half-life [4]	relative oral availability [4]
CCc1ccccc1C(=O)Nc1n[nH]c2c(C)c(F)c(C3C(C#N)=C(C)N(C)C(C)=C3C#N)cc12 [BAY-3827]	no inhibition	1.4 nM	7 nM	5 fold	46 nmol/min/mg			
CNC(=O)c1ccccc1Oc1nc(Nc2cc(OC)c(OC)c(OC)c2)ncc1Br [SBI-0206965]			290 nM			6100 nM	short	low
